Laboratory results taken from US20100331330A1, “METHODS AND COMPOSITIONS FOR TREATING ISCHEMIC STROKE” (priority 2006, published 2010).
pKd, pKi: −log10 of the molar value.

Columns and labels:
[1] = system: rodent models of cerebral ischemia; conditions: in vivo; cited from earlier work
rat cerebellum = conditions: injection; bacterial lipopolysaccharide and interferon-γ; cited from earlier work
[2] = system: cultured cerebellar granule neurons; conditions: cited from earlier work
PPARγ = target: T1, PPARγ (Homo sapiens, UniProt P37231); conditions: cited from earlier work
T1 sequence (P37231 1-505): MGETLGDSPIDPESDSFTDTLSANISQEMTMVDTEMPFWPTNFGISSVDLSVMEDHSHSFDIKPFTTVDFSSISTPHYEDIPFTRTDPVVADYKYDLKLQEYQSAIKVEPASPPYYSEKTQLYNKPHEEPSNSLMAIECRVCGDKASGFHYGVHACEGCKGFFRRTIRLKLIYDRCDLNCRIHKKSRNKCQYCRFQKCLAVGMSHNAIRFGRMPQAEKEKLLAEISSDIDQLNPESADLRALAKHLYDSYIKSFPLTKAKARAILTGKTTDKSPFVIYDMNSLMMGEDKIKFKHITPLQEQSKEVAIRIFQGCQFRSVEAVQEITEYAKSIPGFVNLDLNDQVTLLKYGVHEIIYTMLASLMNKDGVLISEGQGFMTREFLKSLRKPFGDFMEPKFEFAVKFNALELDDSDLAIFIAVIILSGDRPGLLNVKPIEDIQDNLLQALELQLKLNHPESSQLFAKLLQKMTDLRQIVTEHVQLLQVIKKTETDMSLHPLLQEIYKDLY

[3] = system: rats subjected to middle cerebral artery occlusion (MCAO); conditions: 90 minute MCAO
Source text: Male Wistar rats, 250-350 g, were obtained from Charles River (Wilmington, Mass.). Animals were housed and cared for in the Animal Resource Center and allowed free access to food and water before and after surgery. All procedures were approved by the Institutional Animal Care and Use Committee of Case Western Reserve University.
A 4.0 nylon suture with a flame rounded tip was advanced through the internal carotid artery to occlude the MCA while cerebral blood flow was monitored using laser doppler (Perimed AB, Jarfalla, Sweden). At the time of reperfusion rats were again anesthetized and the suture removed with cerebral blood flow monitoring to ensure reperfusion. Arterial blood pressure, arterial blood gases and temperature were all monitored and controlled during the length of the procedure.
Control animals were injected with 0.1 ml DMSO.
Rats were euthanized by exposure to 5% halothane until breathing ceased. They then underwent intracardiac perfusion first with PBS and then with 4% paraformaldehyde. Brains were isolated and immersion fixed in 4% paraformaldehyde overnight. Tissue was cryoprotected in 30% sucrose in PBS. Twenty micron frozen sections were collected every […] beginning at the level of the forceps minor corpus callosum and extending through the hippocampus. Sections were stained with Thionin and the area of infarction measured using Bioquant computer software (R&M Biometrics, Nashville, Tenn.) by subtracting the uninfarcted tissue in the ischemic hemisphere from the volume of the contralateral hemisphere. This method corrects for post-ischemic edema.
Male Wistar rats, 250-350 g, were obtained from Charles River (Wilmington, Mass.). […] Animals were housed and cared for in the Animal Resource Center and allowed free access to food and water before and after surgery. […] The tail artery was exposed and cannulated to measure mean arterial blood pressure and to obtain blood for blood gas measurements during surgery. Animals in which normal temperature, blood pressure and gases could not be maintained were excluded from the study. MCAO was performed as previously described. Briefly, the bifurcation of the common carotid artery was exposed. The external carotid artery was isolated and a suture placed 0.5 cm from the bifurcation. Following electrocoagulation distal to the suture the external carotid was cut between the suture and the electrocoagulated segment. A suture was applied to the common carotid artery such that it could be removed later. A loop of suture was then placed under the internal carotid artery and the artery elevated to transiently occlude blood flow. A small nick was made in the wall of the external carotid artery. Through this nick a 22 mm length of 4.0 Ethicon suture, its tip rounded by heating near a flame, was gently threaded from the external to the internal carotid artery lumen to a distance of 18 mm from the bifurcation of the carotid. The thread was held in place with a suture around the stump of the external carotid artery and the suture around the internal carotid artery released. The catheter was removed from the tail artery and both incisions were closed. The rats were then allowed to recover from anesthesia. […] The neck incision was reopened and the 4.0 Ethicon suture removed. The suture that held it in place was tightened and the suture around the common carotid artery was removed. After confirmation of reperfusion by visual inspection, the incision was closed and the animal allowed to recover.
Twenty micron frozen sections of paraformaldehyde fixed brains were collected every 1000 μm beginning at the level of the forceps minor corpus callosum and extending through the hippocampus. The slides were stained with Thionin. The sections were then trans-illuminated and the image transmitted to a computer screen.

hemorrhagic stroke = conditions: in vivo; cited from earlier work
PPARγ-PPRE binding = target: T2, PPARγ-PPRE binding (Rattus norvegicus, UniProt O88275); assay: Electrophoretic mobility shift assay of PPARγ DNA (PPRE) binding in brain nuclear extract; assay type: in vivo; conditions: both ipsilateral and contralateral hemispheres, 0.1 mg/kg 24 h before and at time of 2 hour MCAO
T2 construct: from tissue; host or cells: rat brain nuclear extract (ipsilateral and contralateral hemisphere after MCAO)
T2 sequence (O88275 1-505): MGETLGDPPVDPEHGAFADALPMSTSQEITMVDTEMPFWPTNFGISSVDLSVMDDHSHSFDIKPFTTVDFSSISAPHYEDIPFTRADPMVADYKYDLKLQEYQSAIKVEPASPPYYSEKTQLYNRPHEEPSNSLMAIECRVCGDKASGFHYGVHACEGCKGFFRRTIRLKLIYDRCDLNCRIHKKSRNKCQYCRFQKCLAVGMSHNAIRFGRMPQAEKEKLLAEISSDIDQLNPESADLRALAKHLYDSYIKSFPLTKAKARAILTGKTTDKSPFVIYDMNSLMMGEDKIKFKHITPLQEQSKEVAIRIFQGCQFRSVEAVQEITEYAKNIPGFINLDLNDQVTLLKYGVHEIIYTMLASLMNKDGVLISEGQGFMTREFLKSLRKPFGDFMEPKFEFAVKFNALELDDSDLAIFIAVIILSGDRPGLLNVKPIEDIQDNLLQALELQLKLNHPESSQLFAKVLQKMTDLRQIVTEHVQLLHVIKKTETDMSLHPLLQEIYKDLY
T2 sequence (Q05343 1-467 partner): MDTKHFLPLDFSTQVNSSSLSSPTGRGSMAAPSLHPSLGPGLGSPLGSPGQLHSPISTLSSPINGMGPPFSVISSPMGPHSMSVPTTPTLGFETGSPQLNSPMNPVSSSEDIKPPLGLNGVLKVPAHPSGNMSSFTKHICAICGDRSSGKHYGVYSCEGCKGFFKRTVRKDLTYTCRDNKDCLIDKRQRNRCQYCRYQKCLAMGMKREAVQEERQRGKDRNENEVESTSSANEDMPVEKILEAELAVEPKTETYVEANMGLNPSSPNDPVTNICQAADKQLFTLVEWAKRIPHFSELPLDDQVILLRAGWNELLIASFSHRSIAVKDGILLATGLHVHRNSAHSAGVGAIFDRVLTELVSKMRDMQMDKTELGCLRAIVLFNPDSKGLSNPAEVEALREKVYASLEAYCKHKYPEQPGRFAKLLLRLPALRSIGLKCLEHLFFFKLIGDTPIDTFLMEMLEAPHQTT
Method: Eight hours after the onset of MCAO the animals were euthanized by halothane inhalation and the brains quickly removed. Blocks of tissue 4 mm thick encompassing the rostral caudal extension of the infarct and the same area on the contralateral hemisphere were dissected free and snap frozen in liquid nitrogen. Nuclear extraction was performed and protein concentrations were determined using the Bradford method.
Ten micrograms of nuclear extract protein was incubated with 32P-labeled double stranded oligonucleotide (40 fmol) containing the PPAR responsive element sequences in rat acyl CoA oxidase promoter (5′-[…]-3′) (SEQ ID NO: 5). For competition assays, 100 fold radioinert (cold) competitor oligonucleotides were included in the reaction mixture. Interference assays with antibody to PPARγ (2 μg/reaction; SC-7273x, Santa Cruz Biotechnology,) were used to determine specificity of PPARγ-PPRE binding.
Nucleoprotein-oligonucleotide complexes were resolved electrophoretically on a 7% non-denaturing polyacrylamide gel. The gel was autoradiographed and optical density was assessed using Kodak Analysis (EDAS) 290 system.

LPL mRNA = assay: Lipoprotein lipase (LPL) mRNA by real time PCR after MCAO; assay type: in vivo, rat; conditions: rosiglitazone 0.1 mg/kg, pioglitazone 1.0 mg/kg; 24 h before and at time of 2 hour MCAO; tissue 24 h later
Source text: At the time of sacrifice the animal was placed in an anesthesia chamber and exposed to 5% halothane, 30% oxygen, 65% nitrous oxide until it ceased breathing. The rat was the, processed for either histologic and immunocytochemical analysis or decapitated and the brain immediately dissected for mRNA isolation. Animals used for immunohistochemistry underwent intracardiac perfusion; the thoracic cavity was opened, a blunt needle placed through the left ventricle into the aorta and the right atrium cut. Animals were perfused through the heart, first with 0.1 M phosphate buffer and then with 4% paraformaldehyde (pH 7.4). The brain was removed from the rat and immersion fixed in 4% paraformaldehyde for an additional hour. Tissue was then transferred to 30% sucrose in phosphate buffer in order to cyroprotect it. Brains were mounted in OCT sectioning medium and frozen sections cut at either twenty microns (for infarct volume determination) or ten microns (for immunocytochemistry). Animals used in real time PCR experiments were decapitated after euthanasia and the brain quickly removed.
A 2 mm thick coronal slice of tissue through the area of maximal infarction was quickly homogenized in Trizol (Gibco BRL, Rockville, Md.). […] RNA was isolated using Life Technologies Protocol (Rockville, Md.), and cDNA synthesized from 1.5 μg of total RNA. […]

ICAM mRNA = ICAM mRNA by real time PCR after MCAO; assay type: in vivo, rat; conditions: rosiglitazone 0.1 mg/kg or pioglitazone 1 mg/kg 24 h before and at time of 2 hour MCAO; sacrificed 24 h later
[4] = Physiologic parameters and cerebral blood perfusion monitoring during MCAO; assay type: in vivo, rat; conditions: during MCAO surgery
Method: MCAO was performed as previously described. […] The rats were then allowed to recover from anesthesia.
Male Wistar rats were anesthetized with halothane. Cerebral blood perfusion was monitored during surgery and reperfusion including the time of occlusion and the time of reperfusion. A small craniotomy was made midway between the corner of the eye and the external auditory canal. A laser Doppler probe (Perimed AB, Järfälla, Sweden) was placed such that its beam passed through the craniotomy and cerebral blood perfusion measured. Once the baseline measurement was obtained, MCAO was performed. Cerebral blood perfusion was monitored at the time of MCAO and at the time of reperfusion. There were no significant differences in cerebral blood flow reductions during MCAO for any of the treatment groups. Following completion of MCAO, animals were allowed to recover and returned to their cages.

Compound: Cc1c(C)c2c(c(C)c1O)CCC(C)(COc1ccc(CC3SC(=O)NC3=O)cc1)O2 (single isomer, unassigned; (+)) [troglitazone, (+)-5[[4-[(3,4-dihydro-6-hydroxy-2,5,7,8-tetramethyl-2H-1-benzopyran-2-yl)methoxy]phenyl]methyl]-2,4thiazolidinedione]
- neuroprotection in rodent models of cerebral ischemia [1]: effective neuroprotective agents
- cell death in rat cerebellum (rat cerebellum): reduces cell death
- cell death following glutamate exposure [2]: reduces cell death
- low-potassium-induced apoptosis [2]: suppresses low-potassium-induced apoptosis

Compound: CCCCC/C=C/C=C1/C(=O)C=C[C@@H]1C/C=C\CCCC(=O)O [15-deoxy-D12,14-prostaglandin J2]
- concentrations at which it binds PPARγ (PPARγ): 2 to 5 µM
- cell death in rat cerebellum (rat cerebellum): reduces cell death

Compound: O=C(Nc1ccncc1)c1cc([N+](=O)[O-])ccc1Cl [T0070907]
- mean absolute infarction volume ([3]; T0070907 24 h before and at time of MCAO): 176 mm³
- animals that died ([3]; panel B): one animal

Compound: CCCCCCCCCCCCCCCCOC[C@H](COP(=O)([O-])OCC[N+](C)(C)C)OC(=O)CCCCCCCC(=O)O [hexadecyl azelaoyl phosphatidyicholine]
- pKd (PPARγ): ~7.40

Compound: CC(C)Cc1ccc(C(C)C(=O)O)cc1 (centres unmarked) [ibuprofen]
- cell death in rat cerebellum (rat cerebellum): reduces cell death

Compound: CCCCC[C@H](O)/C=C/[C@H]1C(=O)C=C[C@@H]1C/C=C\CCCC(=O)O [prostaglandin J2]
- benefit in hemorrhagic stroke (hemorrhagic stroke): beneficial in hemorrhagic stroke

Compound: CN(CCOc1ccc(CC2SC(=O)NC2=O)cc1)c1ccccn1 (centres unmarked) [rosiglitazone, 5-[4-[2-(N-methyl-N-(2-pyridyl)amino]ethoxy]benzyl]thiazolidine-2,4-dione]
- PPARγ-PPRE binding (densitometry), in words (PPARγ-PPRE binding): significantly increase PPARγ-PPRE binding
- PPARγ-PPRE binding (densitometry), in words (PPARγ-PPRE binding; listed as Rosiglitazone): increased DNA binding in both the ischemic and the non-ischemic hemispheres
- increase in LPL mRNA levels within the ischemic hemisphere (LPL mRNA): 254%
- ICAM mRNA compared with vehicle treated rats (ICAM mRNA): significant reduction in ICAM mRNA
- physiologic parameters (temperature, arterial blood gases, blood pressure, cerebral blood flow) versus vehicle [4]: no differences in physiologic parameters

Compound: Nitrolinoleic acid
- pKi (PPARγ): < 6.00
